Measurements: US10668051B2, “Modulators of calcium release-activated calcium channel” (Rhizen Pharmaceuticals SA, priority 2009, dated 2020)
Structures can show the parent of a compound that is named as a salt.

Target: CRAC channels (Homo sapiens (Human), UniProt Q96D31)
Assay: In-vitro CRAC channel inhibition assay in Jurkat cells (thapsigargin-induced calcium influx)
Assay type: cell-based
Protocol: 1A. In-Vitro CRAC Channel Inhibition Assay in Jurkat Cells
Plate is incubated at 37° C./5% CO2 for 30 min followed by further 15 min incubation at room temperature. Test compounds (DMSO stocks diluted in Ca^2+ and Mg^2+ free Hanks buffer) at desired concentrations were added to the wells and incubated for 15 min. Thapsigargin (1 μM final concentration) was added to the wells and incubated for 15 min to inhibit the Sarco-endoplasmic reticulum Ca^2+ ATPase pump thereby depleting endoplasmic calcium and raising cytosolic calcium concentrations. Store-operated calcium entry was initiated by adding extracellular Ca^2+ to a final concentration of 1.8 mM. Fluorescence was monitored over 5 min on a plate reader (BMG Labtech., Germany) with excitation at 485 nm and; an emission wavelength at 520 nm. Data were analyzed using GraphPad Prism. IC50 for each compound was determined based on the percent inhibition of thapsigargin-induced calcium influx into cells.

Sequence of CRAC channels (Q96D31 whole entry): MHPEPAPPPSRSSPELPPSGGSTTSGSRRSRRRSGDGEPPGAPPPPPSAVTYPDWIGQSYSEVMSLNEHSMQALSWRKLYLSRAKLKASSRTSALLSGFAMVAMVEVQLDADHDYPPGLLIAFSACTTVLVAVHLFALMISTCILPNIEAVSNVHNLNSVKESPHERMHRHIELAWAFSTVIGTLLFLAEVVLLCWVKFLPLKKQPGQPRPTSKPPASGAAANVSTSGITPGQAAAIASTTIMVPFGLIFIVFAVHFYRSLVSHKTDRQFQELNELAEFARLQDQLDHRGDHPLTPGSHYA

| inhibition at 1 µM [%] | Structure (SMILES) |
| --- | --- |
| 97 | Cc1ncncc1NC(=O)Nc1ccc(-n2nc(C(F)(F)F)cc2C2CC2)c(F)c1 [Example 97, 1-{4-[5-cyclopropyl-3-(trifluoromethyl)-1H-pyrazol-1-yl]-3-fluorophenyl}-3-(4-methylpyrimidin-5-yl)urea] |
| 85.6 | O=C(Nc1c(Cl)cccc1Cl)c1ccc(-n2nc(C(F)(F)F)cc2C2CC2)c(F)c1 [Example 98] |
| 56.2 | O=C(Nc1cccc(F)c1F)c1ccc(-n2nc(C(F)(F)F)cc2C2CC2)c(F)c1 [Example 99, 4-[5-cyclopropyl-3-(trifluoromethyl)-1H-pyrazol-1-yl]-N-(2,3-difluorophenyl)-3-fluorobenzamide] |
| 93 | Cc1nnsc1C(=O)Nc1ccc(-n2nc(C(F)(F)F)cc2C2CC2)nc1 [Example 101, N-{6-[5-cyclopropyl-3-(trifluoromethyl)-1H-pyrazol-1-yl]pyridin-3-yl}-4-methyl-1,2,3-thiadiazole-5-carboxamide] |
| 34.9 | Cc1ncsc1C(=O)Nc1ccc(-n2nc(C(F)(F)F)cc2C2CC2)nc1 [Example 102, N-{6-[5-cyclopropyl-3-(trifluoromethyl)-1H-pyrazol-1-yl]pyridin-3-yl}-4-methylthiazole-5-carboxamide hydrochloride] |
| 19.4 | Cc1noc(C)c1C(=O)Nc1ccc(-n2nc(C(F)(F)F)cc2C2CC2)nc1 [Example 103, N-{6-[5-cyclopropyl-3-(trifluoromethyl)-1H-pyrazol-1-yl]pyridin-3-yl}-3,5-dimethylisoxazole-4-carboxamide] |
| 71.2 | O=C(Nc1ccc(-n2nc(C(F)(F)F)cc2C2CC2)nc1)c1ccccc1Cl [Example 105, 2-chloro-N-{6-[5-cyclopropyl-3-(trifluoromethyl)-1H-pyrazol-1-yl]pyridin-3-yl}benzamide hydrochloride] |
| 97 | O=C(Nc1ccc(-n2nc(C(F)(F)F)cc2C2CC2)nc1)c1cccc(F)c1F [Example 107, N-{6-[5-cyclopropyl-3-(trifluoromethyl)-1H-pyrazol-1-yl]pyridin-3-yl}-2,3-difluorobenzamide] |
| 6.18 | O=C(Nc1ccc(-n2nc(C(F)(F)F)cc2C2CC2)nc1)c1ccccn1 [Example 109, N-{6-[5-cyclopropyl-3-(trifluoromethyl)-1H-pyrazol-1-yl]pyridin-3-yl}picolinamide] |
| 78.4 | Cc1cccnc1C(=O)Nc1ccc(-n2nc(C(F)(F)F)cc2C2CC2)nc1 [Example 110, N-{6-[5-cyclopropyl-3-(trifluoromethyl)-1H-pyrazol-1-yl]pyridin-3-yl}-3-methylpicolinamide] |
| 100 | O=C(Nc1ccc(-n2nc(C(F)(F)F)cc2C2CC2)nc1)c1ccncc1 [Example 113, N-{6-[5-cyclopropyl-3-(trifluoromethyl)-1H-pyrazol-1-yl]pyridin-3-yl}isonicotinamide hydrochloride] |
| 88.7 | O=C(Nc1ccc(-n2nc(C(F)(F)F)cc2C2CC2)nc1)c1ccncc1F [Example 114, N-{6-[5-cyclopropyl-3-(trifluoromethyl)-1H-pyrazol-1-yl]pyridin-3-yl}-3-fluoroisonicotinamide] |
| 51.3 | O=C(Nc1ccc(-n2nc(C(F)(F)F)cc2C2CC2)nc1)c1c(Cl)cncc1Cl [Example 115, 3,5-dichloro-N-{6-[5-cyclopropyl-3-(trifluoromethyl)-1H-pyrazol-1-yl]pyridin-3-yl}isonicotmamide] |
| 15.4 | Cc1ncncc1C(=O)Nc1ccc(-n2nc(C(F)(F)F)cc2C2CC2)nc1 [Example 116, N-{6-[5-cyclopropyl-3-(trifluoromethyl)-1H-pyrazol-1-yl]pyridin-3-yl}-4-methylpyrimidine-5-carboxamide] |
| 0 | O=C(Cc1ccccn1)Nc1ccc(-n2nc(C(F)(F)F)cc2C2CC2)nc1 [Example 117, N-{6-[5-cyclopropyl-3-(trifluoromethyl)-1H-pyrazol-1-yl]pyridin-3-yl}-2-(pyridin-2-yl)acetamide hydrochloride] |
| 20.9 | O=C(Cc1ccncc1)Nc1ccc(-n2nc(C(F)(F)F)cc2C2CC2)nc1 [Example 118, N-{6-[5-cyclopropyl-3-(trifluoromethyl)-1H-pyrazol-1-yl]pyridin-3-yl}-2-(pyridin-4-yl)acetamide hydrochloride] |
| 40.5 | Cc1ncncc1C(=O)Nc1ccc(-n2nc(C(F)(F)F)c(Cl)c2C2CC2)c(F)c1 [Example 119, N-{4-[4-chloro-5-cyclopropyl-3-(trifluoromethyl)-1H-pyrazol-1-yl]-3-fluorophenyl}-4-methylpyrimidine-5-carboxamide] |
| 23.1 | O=C(Nc1cccc(F)c1F)c1ccc(-n2nc(C(F)(F)F)cc2C2CC2)nc1 [Example 121, 6-[5-cyclopropyl-3-(trifluoromethyl)-1H-pyrazol-1-yl]-N-(2,3-difluorophenyl)nicotinamide] |
| 100 | O=C(Nc1c(F)cccc1F)c1ccc(-n2nc(C(F)(F)F)cc2C2CC2)nc1 [Example 122, 6-[5-cyclopropyl-3-(trifluoromethyl)-1H-pyrazol-1-yl]-N-(2,6-difluorophenyl) nicotinamide] |
| 31 | Cc1ncsc1C(=O)Nc1ccc(-n2nc(C(F)(F)F)c(Cl)c2C2CC2)nc1 [Example 123, N-{6-[4-chloro-5-cyclopropyl-3-trifluoromethyl-1H-pyrazol-1-yl]pyridin-3-yl}-4-methylthiazole-5-carboxamide] |
| 86.2 | O=C(Nc1cnc(-n2nc(C(F)(F)F)cc2C2CC2)nc1)c1c(F)cccc1F [Example 124, N-{2-[5-cyclopropyl-3-(trifluoromethyl)-1H-pyrazol-1-yl]pyrimidin-5-yl}-2,6-difluorobenzamide] |
| 100 | Cc1ncsc1C(=O)Nc1ccc(-n2nc(C(F)(F)F)cc2CF)cc1 [Example 125, N-{4-[5-(fluoromethyl)-3-(trifluoromethyl)-1H-pyrazol-1-yl]phenyl}-4-methylthiazole-5-carboxamide] |
| 100 | Cc1ncsc1C(=O)Nc1ccc(-n2nc(C(F)(F)F)cc2C(F)F)cc1 [Example 126, N-{4-[5-(difluoromethyl)-3-(trifluoromethyl)-1H-pyrazol-1-yl]phenyl}-4-methyl thiazole-5-carboxamide] |
| 66.3 | O=C(Nc1ccc(-n2nc(C3CC3)cc2C2CC2)c(F)c1)c1c(Cl)cncc1Cl [Example 127, 3,5-dichloro-N-[4-(3,5-dicyclopropyl-1H-pyrazol-1-yl)-3-fluorophenyl]isonicotinamide] |
| 100 | O=C(Nc1c(F)cccc1Cl)c1ccc(-n2nc(C(F)(F)F)cc2C2CC2)c(F)c1 [Example 128, N-(2-chloro-6-fluorophenyl)-4-[5-cyclopropyl-3-(trifluoromethyl)-1H-pyrazol-1-yl]-3-fluorobenzamide] |
| 28.3 | Cc1ncsc1C(=O)Nc1cnc(-n2nc(C(F)(F)F)cc2C2CC2)nc1 [Example 129, N-{2-[5-cyclopropyl-3-(trifluoromethyl)-1H-pyrazol-1-yl]pyrimidin-5-yl}-4-methyl thiazole-5-carboxamide] |

| Structure (SMILES) | inhibition at 1 µM [%] |
| --- | --- |
| O=C(Cc1ccccn1)Nc1ccc(-n2nc(C(F)(F)F)c(Cl)c2C2CC2)c(F)c1 [Example 96, N-{4-[4-chloro-5-cyclopropyl-3-(trifluoromethyl)-1H-pyrazol-1-yl]-3-fluorophenyl}-2-(pyridin-2-yl)acetamide hydrochloride] | 18 |
